This is an account of results in PMC11539229 (Antimicrobial Agents and Chemotherapy, 2024).

Series [1] has as its target T1, P-glycoprotein (P-gp) (Homo sapiens, UniProt P08183).
T1 construct: expressed in transfected cells; host or cells: MDR1-MDCKII (Madin-Darby canine kidney cells expressing MDR1)
Put plainly: Efflux ratio with and without P-gp inhibitor GF120918 in MDR1-MDCKII cells. It is filed as in vitro ADME. The method, then: The measured solubility in fasted state simulated intestinal fluid (FaSSIF) was high (Table 1). The permeability of GSK138 predicted from Madin-Darby canine kidney (MDCK) cells was also high (Table 1).
Studies were performed as described by Polli et al. ([31]), with minor modifications. GF120918 was used as the inhibitor of P-gp. Apical-to-basolateral and basolateral-to-apical transports were studied across MDR1-MDCKII cell monolayers in the absence and presence of the P-gp inhibitor GF120918, and the Papp (intrinsic apparent permeability) was estimated in both directions with or without inhibitor.

A short description of series [2]: physchem. It is filed as physicochemical. The method, then: Solubility assays were performed using a miniaturized shake flask method. Stock solutions (10 mM) of each test compound were used to prepare calibration standards (10–220 μM) in DMSO and to spike (1:50) duplicate aqueous samples of FaSSIF (simulating fasting state biorelevant media, pH 6.5) with a final DMSO concentration of 2%. After shaking for 2 h at 25°C, the solutions were filtered and analyzed by means of high-performance liquid chromatography with diode-array detection (HPLC-DAD) (Agilent 1200 Rapid Resolution HPLC with a diode array detector). Best-fit calibration curves were constructed using the calibration standards, which were used to determine the aqueous sample solubility ([32]).

In series [3] the target is recombinant InhA (Mycobacterium tuberculosis, UniProt P9WGR1). The experiment in a line: Inhibition of recombinant InhA. It is filed as biochemical, M. tuberculosis. On the procedure: GSK138 inhibited recombinant InhA with an IC50 of 0.04 µM. The minimum inhibitory concentration (MIC) was 1 µM against M. tuberculosis H37Rv, and GSK138 retained its activity against intracellular bacteria growing inside THP-1-derived macrophages in vitro (MIC 0.9 µM).
Sequence of recombinant InhA (P9WGR1 whole entry, looked up): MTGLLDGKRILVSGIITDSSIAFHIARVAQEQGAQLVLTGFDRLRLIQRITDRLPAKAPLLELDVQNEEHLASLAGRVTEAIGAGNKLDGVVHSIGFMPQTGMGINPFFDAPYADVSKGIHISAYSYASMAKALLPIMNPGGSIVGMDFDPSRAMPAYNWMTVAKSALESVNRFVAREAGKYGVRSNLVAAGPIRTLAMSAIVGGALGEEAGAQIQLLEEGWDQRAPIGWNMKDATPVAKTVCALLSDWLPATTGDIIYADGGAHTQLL

Series [4] concerns M. tuberculosis H37Rv. It is filed as in vivo, BALB/c mice.
The nature of series [5]: physchem.

Broadly, the solubility is the concentration that dissolves in the medium under given conditions. A lower solubility goes with little dissolved substance. The IC50 is the concentration needed to halve the response being measured. Usually chromatographic logD stands for lipophilicity estimated from chromatographic retention. A low value points to a more hydrophilic compound.

The structures appear in SMILES notation. In brackets after ≈: the same amount, converted by molar mass.

T1 sequence (P08183 whole entry): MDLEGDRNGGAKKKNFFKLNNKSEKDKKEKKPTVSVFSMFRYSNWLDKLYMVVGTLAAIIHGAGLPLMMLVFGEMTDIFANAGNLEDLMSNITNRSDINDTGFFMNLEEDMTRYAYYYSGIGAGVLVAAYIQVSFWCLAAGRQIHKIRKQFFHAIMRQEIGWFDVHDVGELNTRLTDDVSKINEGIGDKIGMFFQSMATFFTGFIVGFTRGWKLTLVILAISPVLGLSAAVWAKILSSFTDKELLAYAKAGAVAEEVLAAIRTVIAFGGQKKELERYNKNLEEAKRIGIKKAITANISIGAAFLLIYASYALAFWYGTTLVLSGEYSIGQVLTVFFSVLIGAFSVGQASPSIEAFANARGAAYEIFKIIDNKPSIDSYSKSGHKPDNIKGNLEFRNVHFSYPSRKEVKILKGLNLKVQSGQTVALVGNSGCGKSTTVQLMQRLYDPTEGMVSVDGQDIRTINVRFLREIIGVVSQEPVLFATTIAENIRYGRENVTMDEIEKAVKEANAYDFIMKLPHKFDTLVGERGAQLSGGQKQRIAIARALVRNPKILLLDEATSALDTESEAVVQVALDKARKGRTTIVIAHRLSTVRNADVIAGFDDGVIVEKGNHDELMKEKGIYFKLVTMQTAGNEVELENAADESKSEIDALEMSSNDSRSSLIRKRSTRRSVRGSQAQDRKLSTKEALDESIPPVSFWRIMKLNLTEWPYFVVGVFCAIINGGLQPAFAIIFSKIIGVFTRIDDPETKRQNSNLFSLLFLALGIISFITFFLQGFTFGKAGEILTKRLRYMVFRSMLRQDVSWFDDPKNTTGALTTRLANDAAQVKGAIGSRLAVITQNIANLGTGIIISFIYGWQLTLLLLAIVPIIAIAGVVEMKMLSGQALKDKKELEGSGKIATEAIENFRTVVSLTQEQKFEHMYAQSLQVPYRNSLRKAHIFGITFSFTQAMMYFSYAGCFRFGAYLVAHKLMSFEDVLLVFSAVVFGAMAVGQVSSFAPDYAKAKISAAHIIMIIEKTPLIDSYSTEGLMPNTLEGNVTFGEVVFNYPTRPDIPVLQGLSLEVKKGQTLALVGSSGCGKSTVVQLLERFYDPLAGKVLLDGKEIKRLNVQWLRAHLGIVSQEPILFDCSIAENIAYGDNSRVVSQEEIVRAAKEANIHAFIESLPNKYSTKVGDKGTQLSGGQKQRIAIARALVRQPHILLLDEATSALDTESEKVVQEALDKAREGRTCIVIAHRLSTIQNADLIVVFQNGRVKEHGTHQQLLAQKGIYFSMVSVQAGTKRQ

In the case of `Cc1csc([C@](C)(O)c2nnc(Nc3cc(C)n(Cc4csc(C)n4)n3)s2)n1` [GSK138], in series [1], the “P-gp substrate status from efflux ratio” value is reported as “P-gp substrate”. Moreover, the “solubility in FaSSIF” value in series [2] is on record as “high”. In addition, in series [2] (pH 6.5), the solubility at 2 h was 140 to 320 µM (≈ 60.7 to 139 µg/mL). Besides, the IC50 in series [3] is 40 nM. In series [4] (experiment 3, GSK138 200 mg/kg), the “effect of addition to PaL, R + GSK656, or RZ + GSK656” value is listed as “did not significantly increase the activity”. In addition, the “effect of addition to BPaL, BPa or BPa + GSK656” value in series [4] (experiment 3, GSK138 200 mg/kg, 4 weeks (P < 0.01) and 8 weeks (P < 0.0001)) was “significantly increased the activity”. In addition, in series [4] (experiment 4, 8 weeks of treatment), the “effect of addition to BPa” value is “additive effects”. The “effect of addition to BPaL on bactericidal activity” value in series [4] (experiment 5, 4 weeks of treatment) is reported as “significantly increased the bactericidal activity”. The chromatographic logD is 3.39 in series [5] (pH 7.4, Chrom logD) and 3.38 in series [5] (pH 7.4, chrom logD).
